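Cultured in 96-well plates, cells were exposed to test compound for 48 hours across five concentrations. The concentration for 50% growth inhibition is given as GI50. TGI: concentration producing complete growth inhibition.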

One test relates to A498 renal. Kind of test: DTP human tumour cell line panel, 48 h.
By GI50 is commonly meant the concentration giving 50% growth inhibition. In general, TGI refers to the concentration at which net growth stops. With `CCN(CC)CC(C)Nc1ccc([N+](=O)[O-])c2sc3ccccc3c(=O)c12` (centres undefined), the GI50 was 1.49 µM and the total growth inhibition concentration (TGI) came out at 10.5 µM.

Turning to `N=C(N)c1ccc(-c2ccc(-c3cc(Cl)cc(Cl)c3)o2)nc1`, the GI50 is 1.47 µM and the TGI came to 3.22 µM.

Take `CNC(=O)OC(C)CN1c2ccccc2Sc2ccc(Cl)cc21` (centres undefined): the TGI was greater than 10 µM.

For `O=C(CCCCCCC(=O)Nc1ccc(N(CCCl)CCCl)cc1)NO`, the GI50 was 3.11 µM and the TGI came to 13.1 µM.

Regarding `CN1CC[C@@]2(c3cccc(O)c3)CC(=O)/C(=C/c3ccccc3)[C@H]1C2`, the TGI was determined as 30.4 µM.

Regarding `O=C(N/N=C(/c1ccccc1)C(F)(F)F)c1ccncc1`, the TGI is greater than 100 µM.

In the case of `O=S(=O)(O)c1ccc2cccc(N=Nc3c(O)ccc4ccccc34)c2c1`, the TGI was greater than 100 µM.

As for `COc1ccc2nc(-c3ccc(-c4noc(-c5cc(OC)c(OC)c(OC)c5)n4)cc3)[nH]c2c1`, the GI50 was 28 µM and the TGI is greater than 100 µM.

`COc1ccc(/C(=C2/O[C@@H]([C@H]3COC(C)(C)O3)[C@H]3OC(C)(C)O[C@@H]23)c2cc(OC)c(OC)c(OC)c2)cc1O`: the GI50 is 32.1 µM and the TGI came out at 97.4 µM.

The compound `Cn1c(=O)c2c(nc(-n3nc(-c4ccc(Cl)cc4)cc3N)n2C)n(C)c1=O` had a TGI greater than 100 µM.

`CCS(=O)(=O)Nc1ccc(Nc2c3ccccc3nc3ccccc23)c(OC)c1` showed a TGI of 2.28 µM.

Consider `Cc1nc(N)nc(N)c1-c1ccc(Cl)c(Cl)c1`, for which the TGI was greater than 80.6 µM.

Consider `Cc1cccc2nc3c(C(=O)NCCN(C)C)cccc3cc12`, for which the TGI was found to be 3.48 µM.

`C[C@]12CC[C@@H]3c4ccc(OP(=O)(O)O)cc4CC[C@H]3[C@@H]1CCC2=O`: the TGI is greater than 100 µM.

The compound `CCSCCC(N)C(=O)O` (centres undefined) registered a TGI greater than 100 µM.

For the compound `COc1ccc2nc(N/N=C/C(C)=N/Nc3cc(C)c4cc(OC)ccc4n3)cc(C)c2c1`, the TGI was greater than 80.9 µM.

As for `CN(C)CC(=O)Nc1ccc(Cn2nnc3c2C(=O)c2nnn(Cc4ccc(NC(=O)CN(C)C)cc4)c2C3=O)cc1`, the GI50 was 1.07 µM and the TGI came out at 2.29 µM.

A further test concerns A549 NSCLC. Description: DTP human tumour cell line panel, 48 h.
On to `CCN(CC)CC(C)Nc1ccc([N+](=O)[O-])c2sc3ccccc3c(=O)c12` (centres undefined), for which the GI50 is 0.938 µM and the TGI came out at 5.04 µM.

Take `CCOC(=O)CSc1nc(N)c2c(-c3ccc(OC)c(OC)c3)c3c(nc2n1)CCCC3`: the TGI is greater than 100 µM.

Turning to `CNC(=O)OC(C)CN1c2ccccc2Sc2ccc(Cl)cc21` (centres undefined), the TGI is greater than 10 µM.

On to `CN1CC[C@@]2(c3cccc(O)c3)CC(=O)/C(=C/c3ccccc3)[C@H]1C2`, for which the TGI is 36.9 µM.

Regarding `ONc1ncnc2nc[nH]c12`, the TGI is greater than 100 µM.

`CCCc1[nH]c(SCCCCCCCCSc2nc(-c3ccc(F)cc3)c(CCC)[nH]2)nc1-c1ccc(F)cc1`: the TGI is greater than 100 µM.

`O=S(=O)(O)c1ccc2cccc(N=Nc3c(O)ccc4ccccc34)c2c1` registered a TGI greater than 100 µM.

Turning to `COc1ccc2nc(-c3ccc(-c4noc(-c5cc(OC)c(OC)c(OC)c5)n4)cc3)[nH]c2c1`, the GI50 was 5.65 µM and the TGI is 20.3 µM.

Consider `COc1ccc(/C(=C2/O[C@@H]([C@H]3COC(C)(C)O3)[C@H]3OC(C)(C)O[C@@H]23)c2cc(OC)c(OC)c(OC)c2)cc1O`, for which the GI50 is 22.7 µM and the TGI was greater than 100 µM.

For the compound `Cn1c(=O)c2c(nc(-n3nc(-c4ccc(Cl)cc4)cc3N)n2C)n(C)c1=O`, the TGI is greater than 100 µM.

Compound `N=c1c2c(C(N)=O)cn(C3OC(CO)C(O)C3O)c2ncn1O` (centres undefined) returned a TGI of 2.11 µM. That is a single-digit micromolar value.

As for `CCS(=O)(=O)Nc1ccc(Nc2c3ccccc3nc3ccccc23)c(OC)c1`, the TGI stood at 1.7 µM.

The compound `Cc1nc(N)nc(N)c1-c1ccc(Cl)c(Cl)c1` yielded a TGI greater than 100 µM.

In turn, `Cc1cccc2nc3c(C(=O)NCCN(C)C)cccc3cc12` came in with a TGI of 3.5 µM.

`C[C@]12CC[C@@H]3c4ccc(OP(=O)(O)O)cc4CC[C@H]3[C@@H]1CCC2=O`: the TGI was greater than 100 µM.

`CCSCCC(N)C(=O)O` (centres undefined) returned a TGI greater than 100 µM.

On to `COc1ccc2nc(N/N=C/C(C)=N/Nc3cc(C)c4cc(OC)ccc4n3)cc(C)c2c1`, for which the TGI is 45.7 µM.

The test system of the next test is ACHN renal. Description: DTP human tumour cell line panel, 48 h.
`CCN(CC)CC(C)Nc1ccc([N+](=O)[O-])c2sc3ccccc3c(=O)c12` (centres undefined): the GI50 was 0.895 µM and the TGI turned out to be 4.3 µM.

As to `N=C(N)c1ccc(-c2ccc(-c3cc(Cl)cc(Cl)c3)o2)nc1`, the GI50 was 1.81 µM and the TGI came to 3.36 µM.

In the case of `CCOC(=O)CSc1nc(N)c2c(-c3ccc(OC)c(OC)c3)c3c(nc2n1)CCCC3`, the TGI is greater than 100 µM.

The compound `CNC(=O)OC(C)CN1c2ccccc2Sc2ccc(Cl)cc21` (centres undefined) returned a TGI greater than 10 µM.

Turning to `O=C(CCCCCCC(=O)Nc1ccc(N(CCCl)CCCl)cc1)NO`, the GI50 is 1.09 µM and the TGI is 4.86 µM.

Compound `CN1CC[C@@]2(c3cccc(O)c3)CC(=O)/C(=C/c3ccccc3)[C@H]1C2` returned a TGI of 22.6 µM.

The compound `ONc1ncnc2nc[nH]c12` returned a TGI greater than 100 µM.

`CCCc1[nH]c(SCCCCCCCCSc2nc(-c3ccc(F)cc3)c(CCC)[nH]2)nc1-c1ccc(F)cc1` showed a TGI greater than 100 µM.

For `O=S(=O)(O)c1ccc2cccc(N=Nc3c(O)ccc4ccccc34)c2c1`, the TGI was greater than 100 µM.

For the compound `COc1ccc2nc(-c3ccc(-c4noc(-c5cc(OC)c(OC)c(OC)c5)n4)cc3)[nH]c2c1`, the GI50 was 28.2 µM and the TGI was greater than 100 µM.

With `COc1ccc(/C(=C2/O[C@@H]([C@H]3COC(C)(C)O3)[C@H]3OC(C)(C)O[C@@H]23)c2cc(OC)c(OC)c(OC)c2)cc1O`, the GI50 was 15.4 µM and the TGI was greater than 100 µM.

With `Cn1c(=O)c2c(nc(-n3nc(-c4ccc(Cl)cc4)cc3N)n2C)n(C)c1=O`, the TGI was greater than 100 µM.

`N=c1c2c(C(N)=O)cn(C3OC(CO)C(O)C3O)c2ncn1O` (centres undefined) returned a TGI of 0.311 µM.

The compound `Cc1nc(N)nc(N)c1-c1ccc(Cl)c(Cl)c1` showed a TGI greater than 100 µM.

The compound `C[C@]12CC[C@@H]3c4ccc(OP(=O)(O)O)cc4CC[C@H]3[C@@H]1CCC2=O` gave a TGI greater than 100 µM.

The compound `CCSCCC(N)C(=O)O` (centres undefined) gave a TGI greater than 100 µM.

`COc1ccc2nc(N/N=C/C(C)=N/Nc3cc(C)c4cc(OC)ccc4n3)cc(C)c2c1` returned a TGI of 55.3 µM.

As to `CN(C)CC(=O)Nc1ccc(Cn2nnc3c2C(=O)c2nnn(Cc4ccc(NC(=O)CN(C)C)cc4)c2C3=O)cc1`, the GI50 is 0.335 µM and the TGI came to 1.23 µM.

For a further test, the system named is KM12 colon. Description: DTP human tumour cell line panel, 48 h.
On to `CCN(CC)CC(C)Nc1ccc([N+](=O)[O-])c2sc3ccccc3c(=O)c12` (centres undefined), for which the GI50 is 2.14 µM and the TGI came out at 13.5 µM.

For the compound `N=C(N)c1ccc(-c2ccc(-c3cc(Cl)cc(Cl)c3)o2)nc1`, the GI50 was 1.85 µM and the TGI was found to be 3.44 µM.

Regarding `CCOC(=O)CSc1nc(N)c2c(-c3ccc(OC)c(OC)c3)c3c(nc2n1)CCCC3`, the TGI is greater than 100 µM.

Consider `O=C(CCCCCCC(=O)Nc1ccc(N(CCCl)CCCl)cc1)NO`, for which the GI50 is 6.58 µM and the TGI is 21.7 µM.

`CN1CC[C@@]2(c3cccc(O)c3)CC(=O)/C(=C/c3ccccc3)[C@H]1C2`: the TGI was greater than 30.4 µM.

`O=C(N/N=C(/c1ccccc1)C(F)(F)F)c1ccncc1` gave a TGI greater than 100 µM.

For `ONc1ncnc2nc[nH]c12`, the TGI is greater than 100 µM.

In turn, `CCCc1[nH]c(SCCCCCCCCSc2nc(-c3ccc(F)cc3)c(CCC)[nH]2)nc1-c1ccc(F)cc1` showed a TGI greater than 100 µM.

As to `O=S(=O)(O)c1ccc2cccc(N=Nc3c(O)ccc4ccccc34)c2c1`, the TGI was greater than 100 µM.

In the case of `COc1ccc2nc(-c3ccc(-c4noc(-c5cc(OC)c(OC)c(OC)c5)n4)cc3)[nH]c2c1`, the GI50 was 7.52 µM and the TGI stood at 81.8 µM.

Consider `COc1ccc(/C(=C2/O[C@@H]([C@H]3COC(C)(C)O3)[C@H]3OC(C)(C)O[C@@H]23)c2cc(OC)c(OC)c(OC)c2)cc1O`, for which the GI50 is 4.1 µM and the concentration for total growth inhibition (TGI) was found to be 17.8 µM.

`Cn1c(=O)c2c(nc(-n3nc(-c4ccc(Cl)cc4)cc3N)n2C)n(C)c1=O`: the TGI is greater than 100 µM.

Turning to `N=c1c2c(C(N)=O)cn(C3OC(CO)C(O)C3O)c2ncn1O` (centres undefined), the TGI amounted to 0.753 µM.

In turn, `CCS(=O)(=O)Nc1ccc(Nc2c3ccccc3nc3ccccc23)c(OC)c1` gave a TGI of 6.72 µM.

As to `Cc1nc(N)nc(N)c1-c1ccc(Cl)c(Cl)c1`, the TGI was greater than 100 µM.

In the case of `Cc1cccc2nc3c(C(=O)NCCN(C)C)cccc3cc12`, the TGI worked out at 9.47 µM.

On to `C[C@]12CC[C@@H]3c4ccc(OP(=O)(O)O)cc4CC[C@H]3[C@@H]1CCC2=O`, for which the TGI was greater than 100 µM.

Consider `CCSCCC(N)C(=O)O` (centres undefined), for which the TGI is greater than 100 µM.

The compound `COc1ccc2nc(N/N=C/C(C)=N/Nc3cc(C)c4cc(OC)ccc4n3)cc(C)c2c1` returned a TGI of 44.1 µM. That is a double-digit micromolar value.

The subject of another test is NCI-H522 lung. Kind of test: DTP human tumour cell line panel, 48 h.
Regarding `CCN(CC)CC(C)Nc1ccc([N+](=O)[O-])c2sc3ccccc3c(=O)c12` (centres undefined), the GI50 is 1.45 µM and the TGI turned out to be 3.91 µM.

As for `N=C(N)c1ccc(-c2ccc(-c3cc(Cl)cc(Cl)c3)o2)nc1`, the GI50 is 1.98 µM and the TGI was found to be 3.86 µM.

`CNC(=O)OC(C)CN1c2ccccc2Sc2ccc(Cl)cc21` (centres undefined): the TGI is greater than 10 µM.

In the case of `O=C(CCCCCCC(=O)Nc1ccc(N(CCCl)CCCl)cc1)NO`, the GI50 was 0.474 µM and the TGI stood at 2.03 µM.

For `CN1CC[C@@]2(c3cccc(O)c3)CC(=O)/C(=C/c3ccccc3)[C@H]1C2`, the TGI came out at 20 µM.

Consider `O=C(N/N=C(/c1ccccc1)C(F)(F)F)c1ccncc1`, for which the TGI is greater than 100 µM.

`ONc1ncnc2nc[nH]c12`: the TGI was greater than 100 µM.

Compound `O=S(=O)(O)c1ccc2cccc(N=Nc3c(O)ccc4ccccc34)c2c1` displayed a TGI greater than 100 µM.

With `COc1ccc2nc(-c3ccc(-c4noc(-c5cc(OC)c(OC)c(OC)c5)n4)cc3)[nH]c2c1`, the GI50 was 6.89 µM and the TGI turned out to be 45.3 µM.

In the case of `COc1ccc(/C(=C2/O[C@@H]([C@H]3COC(C)(C)O3)[C@H]3OC(C)(C)O[C@@H]23)c2cc(OC)c(OC)c(OC)c2)cc1O`, the GI50 is 2.95 µM and the TGI came to 7.54 µM.

`N=c1c2c(C(N)=O)cn(C3OC(CO)C(O)C3O)c2ncn1O` (centres undefined) had a TGI greater than 20.4 µM.

In the case of `CCS(=O)(=O)Nc1ccc(Nc2c3ccccc3nc3ccccc23)c(OC)c1`, the TGI stood at 16.1 µM. In other words, the double-digit micromolar range.

In turn, `Cc1nc(N)nc(N)c1-c1ccc(Cl)c(Cl)c1` gave a TGI of 34.8 µM. This TGI is about 2.2-fold higher than that of the compound before.

For `C[C@]12CC[C@@H]3c4ccc(OP(=O)(O)O)cc4CC[C@H]3[C@@H]1CCC2=O`, the TGI was greater than 100 µM.

On to `CCSCCC(N)C(=O)O` (centres undefined), for which the TGI was greater than 100 µM.

For `COc1ccc2nc(N/N=C/C(C)=N/Nc3cc(C)c4cc(OC)ccc4n3)cc(C)c2c1`, the TGI was found to be 40.3 µM.

The next test concerns NCI/ADR-RES ovarian. Kind of test: DTP human tumour cell line panel, 48 h.
As for `CCN(CC)CC(C)Nc1ccc([N+](=O)[O-])c2sc3ccccc3c(=O)c12` (centres undefined), the GI50 is 2.65 µM and the TGI is greater than 58.5 µM.

For the origin of these results see PubChem BioAssay (NCI).
